Results: ChEMBL document CHEMBL1269004, “Synthesis of a 6-methyl-7-deaza analogue of adenosine that potently inhibits replication of polio and dengue viruses” (J Med Chem, 2010)

What was measured:
Type in all cases: functional, HeLa S3
[1] = test system: Enterovirus C
[2] = test system: Enterovirus C; remark: listed apart in the source
[3] = test system: Enterovirus C; remark: listed apart in the source
[4] = test system: Enterovirus C; remark: listed apart in the source
[5] = test system: Enterovirus C; remark: listed apart in the source
[6] = test system: Enterovirus C; remark: listed apart in the source

Question: How did the PFU [1] turn out when `Cc1ncnc2c1ncn2[C@@H]1O[C@H](CO)[C@@H](O)[C@H]1O` was run?
Answer: 12

Question: What about the PFU [2] of the same molecule?
Answer: 22

Question: With `Cc1ncnc2c1ccn2[C@@H]1O[C@H](CO)[C@@H](O)[C@H]1O` as the molecule, how does the PFU [3] read?
Answer: 19

Question: What about the PFU [4] of the same molecule?
Answer: 17

Question: Which PFU [5] does the source give for `NC(=O)c1ncn([C@@H]2O[C@H](CO)[C@@H](O)[C@H]2O)n1` [RIBAVIRIN] here?
Answer: >250

Question: What about the PFU [6] of the same molecule?
Answer: 150
